Experiments:
E. coli O0157:H7 EDL 933 = test: Bacterial count in whey powder paste inoculated with E. coli O157:H7, with LAE added; format: cell-based, Escherichia coli O157:H7; settings: whey powder paste pH 6.1-6.2; for bacterial count after 48 h as % of the value on addition: 800 mg of LAE/kg, 48 h storage at room temperature; for change of bacterial count versus control sample without LAE: LAE 200, 400 and 800 mg/kg, after 24 h, continued with longer storage at room temperature
Experimental: (§1) The invention is described in more detail by the examples below. In these examples partially desugared whey powder is used, a constituent of many feedstuffs which was set to the pH range of 6.1-6.2 which is favorable for the growth of many bacteria. The whey powder was made into a paste using aqueous buffer solution, so that together with the bacterial suspension in physiological saline a ratio of whey powder to water of approximately 2:1 resulted. LAE was added to the samples at concentrations of 200, 400 and 800 mg/kg, while a control sample received no addition. The bacterial count was determined in a conventional manner in the resultant pastes immediately after their preparation, after 24 h and after 48 h of storage at room temperature.
Effect on Escherichia coli O157:H7 (approximately 6×10^5/g)
A paste of whey powder prepared in the manner described was inoculated with approximately 6×10^5/g of E. coli O0157:H7 EDL 933. […] At an addition of 800 mg of LAE/kg, the bacterial count after 48 h was less than 10% of the value on addition.
Effect on Escherichia coli O157:H7 (approximately 3×1 0^3/g)
A paste of whey powder prepared in the manner described was inoculated with approximately 3×10^3/g of E. coli O0157:H7 EDL 933. […] At an addition of 800 mg of LAE/kg, the bacterial count after 48 h was less than 10% of the value on addition.

[1] = tested on: L. monocytogenes ATCC 13311; test: Bacterial count in whey powder paste inoculated with Listeria monocytogenes, with LAE added; format: cell-based; settings: whey powder paste pH 6.1-6.2; for bacterial count after 48 h as % of the value on addition: 800 mg of LAE/kg, 48 h storage at room temperature; for change of bacterial count versus control sample without LAE: LAE 200, 400 and 800 mg/kg, after 24 h, continued with longer storage at room temperature
Experimental: as §1
Effect on Listeria monocytogenes (approximately 5×10^5/g)
A paste of whey powder prepared in the manner described was inoculated with approximately 5×10^5/g L. monocytogenes ATCC 13311. […] At an addition of 800 mg of LAE/kg, the bacterial count after 48 h was approximately 15% of the value on addition.
Effect on Listeria monocytogenes (approximately 2×10^3/g)
A paste of whey powder prepared in the manner described was inoculated with approximately 2×10^3/g L. monocytogenes ATCC 13311. […] At an addition of 800 mg of LAE/kg, the bacterial count after 48 h was less than 20% of the value on addition.

[2] = tested on: S. typhimurium NCTC 10527; test: Bacterial count in whey powder paste inoculated with Salmonella typhimurium, with LAE added; format: cell-based; settings: inoculum approximately 3×10^4/g, whey powder paste pH 6.1-6.2
Experimental: as §1
Effect on Salmonella typhimurium (approximately 3×10^4/g)
A paste of whey powder prepared in the manner described was inoculated with approximately 3×10^4/g S. typhimurium NCTC 10527.

[3] = inoculum approximately 3×10^3/g
[4] = inoculum approximately 6×10^5/g
[5] = inoculum approximately 2×10^3/g
[6] = inoculum approximately 5×10^5/g

CCCCCCCCCCCC(=O)N[C@@H](CCCNC(=N)N)C(=O)OCC [LAE, lauroylarginine ethyl ester]
bacterial count after 48 h as % of the value on addition (E. coli O0157:H7 EDL 933; [3]): less than 10%
change of bacterial count versus control sample without LAE (E. coli O0157:H7 EDL 933; [3]): much more marked concentration-dependent decrease
bacterial count after 48 h as % of the value on addition (E. coli O0157:H7 EDL 933; [4]): less than 10%
change of bacterial count versus control sample without LAE (E. coli O0157:H7 EDL 933; [4]): marked concentration-dependent decrease
bacterial count after 48 h as % of the value on addition [1, 5]: less than 20%
change of bacterial count versus control sample without LAE [1, 5]: more marked concentration-dependent decrease
bacterial count after 48 h as % of the value on addition [1, 6]: approximately 15%
change of bacterial count versus control sample without LAE [1, 6]: more marked concentration-dependent decrease
detectability of test bacteria after 48 h ([2]; 800 mg of LAE/kg, 48 h storage at room temperature): no longer detectable
change of bacterial count versus control sample without LAE ([2]; LAE 200, 400 and 800 mg/kg, after 24 h, continued with longer storage at room temperature): much more marked concentration-dependent decrease
